Test results taken from article PMC9705075, “In Vitro characterization of the endocrine disrupting effects of per- and poly-fluoroalkyl substances (PFASs) on the human androgen receptor” (Journal of hazardous materials, 2022).

Tests used:
[1] = test system: AR and PSA expression; design: method as in Kharlyngdoh et al. (2015); settings: at 1 μM; ref Kharlyngdoh et al. (2015); cited from earlier work
[2] = test system: MDA-kb2 cells; assay: Cell viability (colorimetric MTT) assay; type: cell-based, human
Procedure: The cytotoxic effect of PFASs was measured by a colorimetric MTT assay as described previously ([Tachachartvanich et al., 2020]). Briefly, MDA-kb2 cells were plated at a density of 3.0 × 10^4 cells/well in clear 96-well plates (Thermo Scientific, Waltham, MA). After 24 h incubation, cells were treated with PFASs at concentrations ranging from 0.1 to 100 μM in triplicate per treatment. The optical density was assessed at 570 nm with reference wavelength of 650 nm using microplate spectrophotometer (Tecan Infinite® 200PRO, Austria). All cytotoxicity experiments were performed side-by-side with the corresponding cell culture assays and repeated at least three times in a separate independent setup.

[3] = molecular target: T1, human androgen receptor (hAR) (Homo sapiens, UniProt P10275); assay: Mechanism of AR inhibition: testosterone dose-response curves in presence of test chemical, luciferase reporter, MDA-kb2 cells; type: cell-based; settings: highest noncytotoxic concentration: 15 μM NON, HEP, OCT, NNN; 1 μM FLO; 0.05 μM OHF
T1 sequence (P10275 whole entry): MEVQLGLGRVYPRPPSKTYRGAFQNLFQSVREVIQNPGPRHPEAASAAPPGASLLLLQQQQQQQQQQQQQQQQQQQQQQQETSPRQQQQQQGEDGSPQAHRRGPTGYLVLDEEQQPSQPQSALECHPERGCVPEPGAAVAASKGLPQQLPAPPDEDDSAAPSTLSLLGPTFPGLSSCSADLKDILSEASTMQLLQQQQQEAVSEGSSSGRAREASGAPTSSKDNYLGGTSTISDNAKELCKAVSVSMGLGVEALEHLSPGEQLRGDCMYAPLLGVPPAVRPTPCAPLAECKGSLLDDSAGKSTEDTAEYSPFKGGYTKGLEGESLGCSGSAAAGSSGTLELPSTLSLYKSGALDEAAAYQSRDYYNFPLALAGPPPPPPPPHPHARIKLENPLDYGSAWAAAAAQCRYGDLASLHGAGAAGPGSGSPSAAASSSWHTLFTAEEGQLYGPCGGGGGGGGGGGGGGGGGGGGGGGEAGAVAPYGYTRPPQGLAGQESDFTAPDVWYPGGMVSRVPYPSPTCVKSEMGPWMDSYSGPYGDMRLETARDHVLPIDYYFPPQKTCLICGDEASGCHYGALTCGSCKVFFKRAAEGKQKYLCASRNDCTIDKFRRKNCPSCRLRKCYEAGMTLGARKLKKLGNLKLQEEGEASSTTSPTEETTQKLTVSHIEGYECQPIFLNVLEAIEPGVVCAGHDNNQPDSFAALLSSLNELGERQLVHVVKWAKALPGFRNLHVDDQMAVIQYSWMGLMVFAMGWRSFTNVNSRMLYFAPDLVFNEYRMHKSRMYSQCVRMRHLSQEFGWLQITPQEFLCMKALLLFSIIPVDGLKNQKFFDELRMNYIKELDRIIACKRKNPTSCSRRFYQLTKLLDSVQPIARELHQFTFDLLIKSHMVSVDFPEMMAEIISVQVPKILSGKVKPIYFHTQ

[4] = molecular target: T1, human androgen receptor (hAR); assay: AR-mediated luciferase reporter gene assay, antiandrogenic effects (co-culture with […] testosterone), MDA-kb2 cells; type: cell-based; settings: for IC20: MDA-kb2, 24 h, read-out: Inhibition REC20
[5] = test system: intracellular AR protein in VCaP cells; assay: Immunoblotting of intracellular AR protein in VCaP cells; type: cell-based, human; settings: 10% FBS, 48 h exposure to PFAS
Procedure: Cells were plated at a density of 2.0 × 10^6 cells/well in 6-well plates (CellStar, Monroe, NC) and incubated 24 h.
Values are expressed as the mean fold change ± S.E.M. from three independent experiments.

[6] = test system: PSA, FKBP5 and AR mRNA in VCaP human prostate cancer cells; assay: Expression of androgen responsive genes (real-time PCR) in VCaP cells; type: cell-based; settings: 24 h; for testosterone induced expression of FKBP5 / testosterone induced expression of PSA: 1 and 5 μM PFAS with […] testosterone; for testosterone induced expression of FKBP5 / testosterone induced expression of PSA / expression of AR: 10% CD FBS; for expression of AR: PFAS (1 and 5 μM) or 50 nM OHF with […] testosterone
Procedure: VCaP cells were cultured in phenol red-free DMEM supplemented with 10% charcoal-dextran stripped FBS (10% CD FBS, Hyclone, USA) and 1% L-glutamine (Gibco, Grand Island, NY) for 3 days prior to PFAS treatment. Cells were plated at a density of 2.0 × 10^6 cells/well in 6-well plates (CellStar, Monroe, NC) and incubated 24 h. […] After the incubation, total RNA was extracted using the RNeasy Mini Kit (Qiagen, Germantown, MD). Briefly, 2 μg of total RNA were reverse transcribed to cDNA using the SuperScript IV VILO (Thermo Scientific, Waltham, MA) and subjected to real-time PCR (Stratagene MxP3005, Agilent Technologies, Palo Alto, CA). The cDNA was amplified in 10 μL of SYBR Green real-time PCR Master Mixes (Thermofisher Scientific, Waltham, MA) according to the manufacturer’s protocol. […] The fold change of the target genes was compared to the vehicle control using the 2^−ΔΔCt method ([Livak and Schmittgen, 2001]).
Fig. 4. […] Values are expressed as the mean fold change ± S.E.M. from three independent experiments. […] Significance levels are represented with asterisk as following: *p < 0.05, **p < 0.01, ***p < 0.001, and ****p < 0.0001. The Ptrend is determined based on linear regression analysis.

[7] = test system: AR; design: method as in Kjeldsen and Bonefeld-Jørgensen, 2013; settings: in vitro study; ref Kjeldsen and Bonefeld-Jørgensen, 2013; cited from earlier work

**Q.** With `C=CCOc1c(Br)cc(Br)cc1Br` [ATE, allyl 2,4,6-tribromophenyl ether] as the molecule, how does the AR expression [1] read?
**A.** significantly increased AR expression

**Q.** Which AR expression [1] does the source give for `C=C(Br)COc1c(Br)cc(Br)cc1Br` [BATE, 2-bromoallyl 2,4,6-tribromophenyl ether] here?
**A.** significantly increased AR expression

**Q.** Which cytotoxicity [2] does the source give for `Oc1ccc(/N=N/c2ccc(-c3ccc(C(F)(F)C(F)(F)C(F)(F)F)cc3)cc2)c(F)c1` [FLO, 3-Fluoro-4-{(E)-[4'-(heptafluoropropyl) [1,1'-biphenyl]-4-yl]diazenyl}phenol] here?
**A.** relatively high cytotoxicity

**Q.** What about the “effect on dose response curve of testosterone” value (shortened to “effect on dose response curve”) [3] of the same molecule?
**A.** did not change the dose response curves

**Q.** For `FC(F)(F)C(F)(F)C(F)(F)c1nc2ccccc2nc1-c1ccccc1` [HEP, 2-(Heptafluoropropyl)-3-phenylquinoxaline], which IC20 [4] is on record?
**A.** 3.08 µM

**Q.** And the “effect on dose response curve” value [3]?
**A.** rightward parallel shift

**Q.** What about the “AR protein level, normal conditions” value [5] of the same molecule?
**A.** significantly decreased the AR protein

**Q.** What about the “testosterone induced expression of FKBP5” value [6] of the same molecule?
**A.** significantly and concentration dependently decreased

**Q.** And the “testosterone induced expression of PSA” value [6]?
**A.** significantly and concentration dependently decreased

**Q.** What does the source list for `O=C(Nc1ccc([N+](=O)[O-])cc1)C(F)(F)C(F)(F)C(F)(F)C(F)(F)F` [NNN, 2,2,3,3,4,4,5,5,5-Nonafluoro-N-(4 nitrophenyl)pentanamide]?
**A.** IC20 [4]: 2.78 µM; inhibition at 10 µM ([4]; MDA-kb2, read-out: inhibition of AR transactivation): ~25%; effect on dose response curve of testosterone [3]: rightward parallel shift; AR protein level, normal conditions [5]: did not significantly affect cellular AR protein levels; AR expression at 1 μM ([6]; 1 μM with […] testosterone): did not significantly affect AR expression; testosterone induced expression of FKBP5 [6]: significantly and concentration dependently decreased; testosterone induced expression of PSA [6]: significantly and concentration dependently decreased; expression of AR [6]: upregulating the expression of AR

**Q.** For `O=c1cc(C(F)(F)C(F)(F)C(F)(F)C(F)(F)F)c2cc3c4c(c2o1)CCCN4CCC3` [NON, 9-(Nonafluorobutyl)-2,3,6,7-tetrahydro-1H,5H,11H-pyrano[2,3-f]pyrido[3,2,1-ij]quinolin-11-one], which IC20 [4] is on record?
**A.** 10.5 µM

**Q.** What about the “effect on dose response curve” value [3] of the same molecule?
**A.** rightward parallel shift

**Q.** What about the “AR protein level, normal conditions” value [5] of the same molecule?
**A.** significantly decreased the AR protein

**Q.** And the “testosterone induced expression of FKBP5” value [6]?
**A.** significantly and concentration dependently decreased

**Q.** What about the “testosterone induced expression of PSA” value [6] of the same molecule?
**A.** significantly and concentration dependently decreased

**Q.** With `Fc1c(F)c(F)c2c(F)c(F)c(F)c(F)c2c1F` [OCT, Octafluoronaphthalene] as the molecule, how does the “effect on dose response curve” value [3] read?
**A.** did not change the dose response curves

**Q.** Which “effect on dose response curve” value [3] does the source give for `CC(C)(O)C(=O)Nc1ccc([N+](=O)[O-])c(C(F)(F)F)c1` [OHF, hydroxyflutamide, reference compound] here?
**A.** the most parallel shift

**Q.** And the “expression of AR” value [6]?
**A.** upregulating the expression of AR

**Q.** For `O=C(O)C(F)(F)C(F)(F)C(F)(F)C(F)(F)C(F)(F)C(F)(F)C(F)(F)C(F)(F)C(F)(F)F` [PFDA, perfluorodecanoate], which “RIC20, antiandrogenic effect” value [7] is on record?
**A.** ~24 µM

**Q.** Which “RIC20, antiandrogenic effect” value [7] does the source give for `O=S(=O)(O)C(F)(F)C(F)(F)C(F)(F)C(F)(F)C(F)(F)C(F)(F)F` [PFHxS, perfluorohexane sulfonate] here?
**A.** ~19 µM

**Q.** For `O=C(O)C(F)(F)C(F)(F)C(F)(F)C(F)(F)C(F)(F)C(F)(F)C(F)(F)C(F)(F)F` [PFNA, perfluorononanoate], which “RIC20, antiandrogenic effect” value [7] is on record?
**A.** ~44 µM

**Q.** For `O=C(O)C(F)(F)C(F)(F)C(F)(F)C(F)(F)C(F)(F)C(F)(F)C(F)(F)F` [PFOA, perfluorooctanoic acid], which “RIC20, antiandrogenic effect” value [7] is on record?
**A.** around 10 μM
